≈ marks a conversion by molar mass, not a printed value. Read-outs that look alike come from different tables or passages of the source.
What was measured:
HEK293 cells = test: MTT cytotoxicity assay, HEK293; format: cell-based; conditions: Homo sapiens
Method: (§1) Cytotoxicity was evaluated using the MTT (3-(4,5-dimethylthiazol-2-yl)-2,5-diphenyltetrazolium bromide) assay to measure cell viability after treatment with the plant extracts. This assay measures the percentage viability of a cell population by monitoring the ability of the NAD(P)H-dependent oxidoreductase enzyme system in live cells to reduce MTT to formazan, an insoluble purple form of the dye. […] The medium was replaced with fresh medium, and the extracts were added in varying concentrations (50–250 µg/mL). The plates were incubated at 37 °C in 5% CO2 for 48 h. At the end of the incubation period, the spent medium was discarded and replaced with 100 µL fresh medium containing 10 µL (5 mg/mL in PBS) MTT reagent. The cells were then incubated for an additional 4 h. The MTT/medium was subsequently removed, and 100 μL DMSO was added to solubilize the formazan dye product. Absorbance at 570 nm was assessed using a microplate reader (Vacutec, Hamburg, Germany). Cell viability was calculated as in Equation (2).(2) Cell viability (%)=At/Ac×100 where At = absorbance of test or treated cells and Ac = absorbance of control or untreated cells.

MCF-7 cells [1] = test: MTT cytotoxicity assay, MCF-7; format: cell-based, human; conditions: for IC50: Homo sapiens
Method: as §1

HeLa cells [2] = test: MTT cytotoxicity assay, HeLa; format: cell-based, human; conditions: for IC50: Homo sapiens, HeLa
Method: as §1

[3] = DPPH radical scavenging assay; format: biochemical; conditions: crude extracts/ascorbic acid 50-250 µg/mL, 30 min, 517 nm
Method: The antioxidant potential of the crude extracts was evaluated by measuring their DPPH radical scavenging activity following the protocol described by Bukhari et al.. […] A control well containing 5% dimethyl sulfoxide (DMSO) and DPPH was run concurrently. The samples were incubated in the dark for 30 min at room temperature. The absorbance was read against a DMSO blank at a wavelength of 517 nm using a microplate reader.

MCF-7 cells [4] = test: AO/EB dual staining for apoptosis, MCF-7; format: cell-based, human; conditions: 48 h; 250 µg/mL (method) or 100 µg/mL (Figure 3 legend)
Method: A qualitative assessment of apoptosis induction in cancer cells was conducted by the acridine orange-ethidium bromide (AO/EB) dual staining method, as described previously [13, 14]. Confluent cells (4.0 × 10^3 cells/well) were trypsinized and seeded into 48-well plates and incubated for 24 h at 37 °C in 5% CO2. Subsequently, the spent medium was replaced, and cells were incubated for a further 48 h with the extracts or standard drug (5-fluorouracil) at a concentration of 250 µg/mL. The cells were rinsed twice with cold PBS, and 15 µL of the AO/EB dye mixture (0.1 mg/mL: 0.1 mg/mL) was added, and the cells were incubated for 5 min at ambient temperature. The cells were washed with PBS to remove excess dye and then visualized under an Olympus fluorescence microscope (Wirsam Scientific and Precision Equipment Ltd., Johannesburg, South Africa). Images were captured using a CC12 fluorescence camera and Analysis Five Software (Olympus Soft Imaging Solutions, Olympus, Tokyo, Japan) at 200× magnification.

HeLa cells [5] = test: Muse MultiCaspase assay, HeLa; format: cell-based, human; conditions: 100 µg/mL, 48 h, Figure 5a
Method: (§2) The multicaspase assay was performed using the Muse MultiCaspase kit, which can detect the presence of multiple caspases (caspase-1, 3, 4, 5, 6, 7, 8, and 9). The kit utilizes a derivatized VAD peptide that can detect the activity of multiple caspases and a dead cell dye that provides information on membrane integrity or cell death. Cells were seeded into 48-well plates at a density of 1.0 × 10^5 cells/well and allowed to attach over 24 h. Subsequently, 100 µg/mL of the isolated fractions were added, and the cells were incubated for 48 h. The cells were then trypsinized and reconstituted in 1 × caspase buffer. Approximately 5 μL of the Muse™ MultiCaspase working solution was added to 50 μL of cell suspension and incubated at 37 °C for 30 min. Thereafter, 150 μL of 7-AAD working solution was added, mixed thoroughly, and analyzed using the Muse™ cell analyzer (Luminex Corporation, Austin, TX, USA).

MCF-7 cells [6] = test: Muse MultiCaspase assay, MCF-7; format: cell-based, human; conditions: 100 µg/mL, 48 h, Figure 5b
Method: as §2

[7] = HEK293, isolated compounds/fractions, read-out: IC50 HEK293 (isolated compounds)
[8] = MCF7, MTT, isolated compounds/fractions, read-out: IC50 MCF-7 (isolated compounds)
[9] = isolated compounds/fractions, read-out: IC50 HeLa (isolated compounds)
[10] = MTT, isolated compounds/fractions

Compound | IC50 (HEK293 cells; [7]) [µg/mL] | IC50 (MCF-7 cells [1]; [8]) [µg/mL] | IC50 (HeLa cells [2]; [9]) [µg/mL] | IC50 MCF-7 (isolated compounds) (MCF-7 cells [1]; [10]) [µg/mL] | caspase activation in HeLa cells (HeLa cells [5]) | caspase activation in MCF-7 cells (MCF-7 cells [6]) | other results
CCCCCCCCCCCCCCCCCCCCCO [1-Heneicosanol, 1-heneicosanol] | 372 (≈ 1190 µM) | 1980 (≈ 6330 µM) | 4010 (≈ 12800 µM) |  |  |  | 
O=C1O[C@H]([C@@H](O)CO)C(O)=C1O [Ascorbic acid, ascorbic acid] |  |  |  |  |  |  | IC50 DPPH radical scavenging [3]: 84.37 µg/mL (≈ 479 µM)
O=c1[nH]cc(F)c(=O)[nH]1 [Compound 5-FU, 5-Fluorouracil, reference compound] |  |  |  |  |  |  | IC50 (HEK293 cells; 48 h, HEK293 served as normal cells, read-out: IC50 HEK293 (crude extracts)): 54.5 µg/mL (≈ 419 µM); IC50 (MCF-7 cells [1]; MCF7, 48 h, MTT, 48 h, read-out: IC50 MCF-7 (crude extracts)): 148 µg/mL (≈ 1140 µM); IC50 (HeLa cells [2]; 48 h, read-out: IC50 HeLa (crude extracts)): 510 µg/mL (≈ 3920 µM); AO/EB fluorescence / apoptosis in MCF-7 cells (MCF-7 cells [4]): red fluorescence
CCCCCCCCCCCCCCOC(=O)/C=C/c1ccc(OC)c(O)c1 [Tetradecyl isoferulate, tetradecyl isoferulate] | 141 (≈ 360 µM) | 124 (≈ 317 µM) | 170 (≈ 435 µM) | 123.6174 (≈ 317 µM) | pronounced caspase activation potential | pronounced caspase activation potential | 
CCCCCCCCCCCCCCCCCCCCCCCCCCOC(=O)/C=C/c1ccc(OC)c(O)c1 [n-Hexacosanyl isoferulate] | 316 (≈ 566 µM) | 58.8 (≈ 105 µM) | 147 (≈ 262 µM) | 58.84 (≈ 105 µM) | pronounced caspase activation potential | pronounced caspase activation potential | IC50 MCF-7 (isolated compounds) (MCF-7 cells [1]; MTT, isolated compounds/fractions, listed as n-hexacosanyl isoferulate): 58.8 µg/mL (≈ 105 µM); IC50 HeLa (isolated compounds) (HeLa cells [2]; isolated compounds/fractions): 146.63 µg/mL (≈ 262 µM)

— article PMC12466456, “Isolation, Characterization, Antioxidant and Anticancer Activities of Compounds from Erythrina caffra Stem Bark Extract” (Antioxidants, 2025)
